Laboratory results reported in the supplement of paper PMC11061612.

Experiments:
[1] = test system: NCI-N87 (Gastric Carcinoma); experiment: Bliss excess, mean over the matrix (fraction); higher = more synergy
In short: (§1)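 Cell lines grown in DMEM/F12 or RPMI with 10% FBS were plated in 1536-well plates and held 24 hours at 37°C, 5% CO2 before 72 hours of exposure to two-drug dose matrices, with DMSO typically at 0.2%. CellTiter-Glo 2.0 luminescence gave viability, which was converted to inhibition. Vehicle wells were set to 0 and blank wells to 1. Combination Emax is the second-highest inhibition in the matrix, and Bliss excess is the observed combination effect minus the expected EA + EB − EA·EB, where EA and EB are the single-agent effects.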

[2] = test system: OCUM-1 (Gastric Carcinoma); experiment: as above
In short: as §1

[3] = test system: LC4-1 (B-Lymphoblastic Leukemia); experiment: as above
In short: as §1

[4] = test system: SNU-C1 (Colorectal Carcinoma); experiment: as above
In short: as §1

[5] = test system: GI-1 (Glioblastoma); experiment: as above
In short: as §1

[6] = test system: TGBC11TKB (Gastric Carcinoma); experiment: as above
In short: as §1

[7] = test system: NB7 (Neuroblastoma); experiment: as above
In short: as §1

[8] = test system: SCC-9 (Oral Cavity Carcinoma); experiment: as above
In short: as §1

[9] = test system: OCUB-M (Breast Carcinoma); experiment: as above
In short: as §1

[10] = test system: JHH-7 (Hepatocellular Carcinoma); experiment: as above
In short: as §1

[11] = test system: EW-3 (Ewing's Sarcoma); experiment: as above
In short: as §1

[12] = test system: VMRC-LCD (Lung Adenocarcinoma); experiment: as above
In short: as §1

[13] = test system: H-EMC-SS (Chondrosarcoma); experiment: as above
In short: as §1

[14] = test system: HSC-2 (Oral Cavity Carcinoma); experiment: as above
In short: as §1

[15] = test system: KINGS-1 (Low Grade Glioma); experiment: as above
In short: as §1

[16] = test system: NCI-N87 (Gastric Carcinoma); experiment: combination Emax (second highest fraction inhibited in the dose matrix, 72 h); higher = more inhibition; extreme values may be limits of the assay
In short: as §1

[17] = test system: OCUM-1 (Gastric Carcinoma); experiment: as above
In short: as §1

[18] = test system: LC4-1 (B-Lymphoblastic Leukemia); experiment: as above
In short: as §1

[19] = test system: SNU-C1 (Colorectal Carcinoma); experiment: as above
In short: as §1

[20] = test system: GI-1 (Glioblastoma); experiment: as above
In short: as §1

[21] = test system: TGBC11TKB (Gastric Carcinoma); experiment: as above
In short: as §1

[22] = test system: NB7 (Neuroblastoma); experiment: as above
In short: as §1

[23] = test system: SCC-9 (Oral Cavity Carcinoma); experiment: as above
In short: as §1

[24] = test system: OCUB-M (Breast Carcinoma); experiment: as above
In short: as §1

[25] = test system: JHH-7 (Hepatocellular Carcinoma); experiment: as above
In short: as §1

[26] = test system: EW-3 (Ewing's Sarcoma); experiment: as above
In short: as §1

[27] = test system: VMRC-LCD (Lung Adenocarcinoma); experiment: as above
In short: as §1

[28] = test system: H-EMC-SS (Chondrosarcoma); experiment: as above
In short: as §1

[29] = test system: HSC-2 (Oral Cavity Carcinoma); experiment: as above
In short: as §1

[30] = test system: KINGS-1 (Low Grade Glioma); experiment: as above
In short: as §1
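For Bliss excess, mean over the matrix in this document: after 72 h of two-drug dosing.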

SMILES | Bliss excess [1] | Bliss excess [2] | Bliss excess [3] | Bliss excess [4] | Bliss excess [5] | Bliss excess [6] | Bliss excess [7] | Bliss excess [8] | Bliss excess [9] | Bliss excess [10] | Bliss excess [11] | Bliss excess [12] | Bliss excess [13] | Bliss excess [14] | Bliss excess [15] | combination Emax [16] | combination Emax [17] | combination Emax [18] | combination Emax [19] | combination Emax [20] | combination Emax [21] | combination Emax [22] | combination Emax [23] | combination Emax [24] | combination Emax [25] | combination Emax [26] | combination Emax [27] | combination Emax [28] | combination Emax [29] | combination Emax [30]
C[C@@H](Oc1cc(-c2cnn(C3CCNCC3)c2)cnc1N)c1c(Cl)ccc(F)c1Cl [Crizotinib] + CC1=C(C(=CC=C1)Cl)NC(=O)C2=CN=C(S2)NC3=CC(=NC(=N3)C)N4CCN(CC4)CCO [Dasatinib] (first compound max 10 µM, 7x7, partner max 2 µM) | -0.0251 | -0.0693 | -0.0147 | -0.056 | 0.132 | -0.0343 | 0.0924 | 0.0429 | -0.0666 | -0.0142 | -0.0728 | -0.0545 | -0.004 | -0.0097 | 0.0575 | 0.607 | 0.354 | 0.866 | 0.683 | 0.969 | 0.176 | 0.689 | 0.966 | 0.391 | 0.422 | 0.571 | 0.657 | 0.402 | 0.923 | 0.788
C[C@@H](Nc1cc(F)cc(F)c1)c1cc(C(=O)N(C)C)cc2c(=O)cc(N3CCOCC3)oc12 [AZD8186] + C1CN(CCC1(C(=O)N[C@@H](CCO)C2=CC=C(C=C2)Cl)N)C3=NC=NC4=C3C=CN4 [AZD5363] (first compound max 10 µM, 7x7, partner max 10 µM) | 0.0125 | -0.0101 | 0.027 | -0.0605 | 0.0399 | -0.0235 | -0.0059 | -0.0225 | 0.019 | -0.0665 | 0.0017 | -0.025 | -0.0314 | -0.0041 | -0.0307 | 0.629 | 0.513 | 0.398 | 0.586 | 0.751 | 0.126 | 0.864 | 0.351 | 1 | 0.25 | 0.239 | 0.0947 | 0.448 | 0.667 | 0.422
N#Cc1cnc(Nc2cc(NC[C@H]3CNCCO3)c(C(F)(F)F)cn2)cn1 [SRA737] + CCc1c2c(nc3ccc(O)cc13)-c1cc3c(c(=O)n1C2)COC(=O)[C@]3(O)CC [SN-38] (first compound max 10 µM, 7x7, partner max 0.3 µM) | -0.0812 | -0.11 | -0.129 | 0.0746 | 0.0169 | 0.0031 | 0.0757 | 0.0297 | 0.231 | 0.0753 | -0.0562 | 0.102 | -0.0264 | -0.0648 | -0.0051 | 0.732 | 0.695 | 0.941 | 0.748 | 0.973 | – | 0.952 | 0.518 | 0.935 | 0.616 | 0.865 | 0.812 | 0.544 | 0.96 | 0.362
Cc1c2c(nn1C)CSCc1cc(n(C)n1)CSc1cc(c3ccccc3c1)OCCCc1c(C(=O)O)n(C)c3c-2c(Cl)ccc13 [AZD5991] + CS(=O)(=O)CCNCc1ccc(-c2ccc3ncnc(Nc4ccc(OCc5cccc(F)c5)c(Cl)c4)c3c2)o1 [Lapatinib] (first compound max 1 µM, 7x7, partner max 10 µM) | 0.0077 | -0.0754 | 0.0538 | -0.0746 | -0.0104 | 0.0676 | 0.0109 | 0.0313 | 0.0617 | 0.0061 | -0.028 | 0.0626 | -0.0134 | 0.0287 | -0.0437 | 0.967 | 0.239 | 0.97 | 0.425 | 0.577 | 0.839 | 0.593 | 0.984 | 1 | 0.348 | 0.597 | 0.33 | 0.3 | 0.998 | 0.215
C[C@@H]1COCCN1c1cc(C2([S@](C)(=N)=O)CC2)nc(-c2ccnc3[nH]ccc23)n1 [AZD6738] + Nc1ccn([C@@H]2O[C@H](CO)[C@@H](O)C2(F)F)c(=O)n1 [Gemcitabine] (first compound max 10 µM, 7x7, partner max 0.3 µM) | 0.0265 | -0.0316 | 0.0935 | -0.0261 | 0.0797 | -0.0137 | 0.0831 | 0.024 | 0.028 | 0.085 | -0.0176 | 0.0526 | 0.006 | 0.0604 | -0.023 | 0.738 | 0.727 | 0.988 | 0.721 | 0.933 | 0.936 | 0.903 | 0.47 | 0.947 | 0.722 | 0.939 | 0.74 | 0.545 | 0.971 | 0.388
Cc1c2c(nn1C)CSCc1cc(n(C)n1)CSc1cc(c3ccccc3c1)OCCCc1c(C(=O)O)n(C)c3c-2c(Cl)ccc13 [AZD5991] + Nc1ccn([C@@H]2O[C@H](CO)[C@@H](O)C2(F)F)c(=O)n1 [Gemcitabine] (first compound max 1 µM, 7x7, partner max 0.3 µM) | -0.0095 | -0.0565 | 0.0158 | 0.0119 | -0.0002 | -0.0006 | 0.0093 | -0.0216 | 0.0283 | -0.0114 | 0.0096 | 0.0333 | -0.005 | 0.0273 | -0.0719 | 0.61 | 0.656 | 0.975 | 0.449 | 0.86 | 0.929 | 0.844 | 0.237 | 1 | 0.314 | 0.935 | 0.539 | 0.594 | 0.992 | 0.195
Cc1c2c(nn1C)CSCc1cc(n(C)n1)CSc1cc(c3ccccc3c1)OCCCc1c(C(=O)O)n(C)c3c-2c(Cl)ccc13 [AZD5991] + CC(=O)O[C@H]1C(=O)[C@@]2(C)[C@H]([C@H](OC(=O)c3ccccc3)[C@]3(O)C[C@H](OC(=O)[C@H](O)[C@@H](NC(=O)c4ccccc4)c4ccccc4)C(C)=C1C3(C)C)[C@]1(OC(C)=O)CO[C@@H]1C[C@@H]2O [Paclitaxel] (first compound max 1 µM, 7x7, partner max 3 µM) | -0.0041 | 0.027 | -0.0585 | -0.024 | -0.0373 | -0.0368 | 0.0901 | – | 0.0387 | -0.0494 | -0.0365 | – | 0.0049 | -0.0534 | 0.0134 | 0.555 | 0.321 | 0.988 | 0.545 | 0.989 | 0.957 | 0.979 | 0.614 | 1 | 0.603 | 0.917 | 0.864 | 0.285 | 1 | 0.407
N#Cc1cnc(Nc2cc(NC[C@H]3CNCCO3)c(C(F)(F)F)cn2)cn1 [SRA737] + O=c1[nH]cc(F)c(=O)[nH]1 [5-Fluorouracil] (first compound max 10 µM, 7x7, partner max 20 µM) | 0.0586 | -0.0345 | -0.0214 | 0.0964 | -0.0397 | 0.0518 | -0.0058 | 0.053 | 0.0349 | – | -0.0165 | -0.0371 | -0.0371 | -0.0197 | -0.029 | 0.628 | 0.416 | 0.847 | 0.803 | 0.683 | 0.869 | 0.431 | 0.319 | 0.302 | 0.392 | 0.663 | 0.668 | 0.198 | 0.382 | 0.122
CN(CCO)CC[C@H](CSc1ccccc1)Nc1ccc(S(=O)(=O)NC(=O)c2ccc(N3CCC([C@@H](O)c4ccccc4-c4ccc(Cl)cc4)CC3)cc2)cc1S(=O)(=O)C(F)(F)F [AZD4320] + CS(=O)(=O)CCNCc1ccc(-c2ccc3ncnc(Nc4ccc(OCc5cccc(F)c5)c(Cl)c4)c3c2)o1 [Lapatinib] (first compound max 1 µM, 7x7, partner max 10 µM) | 0.0453 | 0.0032 | 0.0427 | 0.0215 | 0.0992 | 0.0791 | 0.0034 | 0.0105 | – | -0.0153 | 0.0104 | 0.0981 | 0.0321 | 0.114 | 0.0401 | 0.982 | 1 | 1 | 0.666 | 0.962 | 0.674 | 0.189 | 0.99 | 0.887 | 0.971 | 0.984 | 0.923 | 0.439 | 1 | 0.962
